# Source: the CheMixHub viscosity set
# ± gives the uncertainty stated by the source.
# Test: xn = mol fraction of the nth substance listed
smiles,measurement,setting,value
OCC(O)CO + CCCCO,viscosity,"298.15 K, 101.33 kPa, x1 = 0.1003",4.05 ± 0.41 mPa·s
same,viscosity,"298.15 K, 101.33 kPa, x1 = 0.1997",6.403 ± 0.65 mPa·s
same,viscosity,"298.15 K, 101.33 kPa, x1 = 0.3003",10.09 ± 1 mPa·s
same,viscosity,"298.15 K, 101.33 kPa, x1 = 0.4007",18.38 ± 1.9 mPa·s
same,viscosity,"298.15 K, 101.33 kPa, x1 = 0.4996",37.92 ± 4 mPa·s
same,viscosity,"298.15 K, 101.33 kPa, x1 = 0.5995",83.21 ± 8.8 mPa·s
same,viscosity,"298.15 K, 101.33 kPa, x1 = 0.6994",180.7 ± 19 mPa·s
same,viscosity,"298.15 K, 101.33 kPa, x1 = 0.8004",338.3 ± 36 mPa·s
same,viscosity,"298.15 K, 101.33 kPa, x1 = 0.8999",541.7 ± 59 mPa·s
same,viscosity,"308.15 K, 101.33 kPa, x1 = 0.1003",3.014 ± 0.31 mPa·s
same,viscosity,"308.15 K, 101.33 kPa, x1 = 0.1997",4.518 ± 0.46 mPa·s
same,viscosity,"308.15 K, 101.33 kPa, x1 = 0.3003",6.896 ± 0.71 mPa·s
same,viscosity,"308.15 K, 101.33 kPa, x1 = 0.4007",11.9 ± 1.2 mPa·s
same,viscosity,"308.15 K, 101.33 kPa, x1 = 0.4996",21.63 ± 2.3 mPa·s
same,viscosity,"308.15 K, 101.33 kPa, x1 = 0.5995",44.15 ± 4.6 mPa·s
same,viscosity,"308.15 K, 101.33 kPa, x1 = 0.6994",82.38 ± 8.5 mPa·s
same,viscosity,"308.15 K, 101.33 kPa, x1 = 0.8004",144.5 ± 15 mPa·s
same,viscosity,"308.15 K, 101.33 kPa, x1 = 0.8999",231.5 ± 24 mPa·s
same,viscosity,"318.15 K, 101.33 kPa, x1 = 0.1003",2.324 ± 0.24 mPa·s
same,viscosity,"318.15 K, 101.33 kPa, x1 = 0.1997",3.356 ± 0.34 mPa·s
same,viscosity,"318.15 K, 101.33 kPa, x1 = 0.3003",4.9 ± 0.5 mPa·s
same,viscosity,"318.15 K, 101.33 kPa, x1 = 0.4007",8.136 ± 0.83 mPa·s
same,viscosity,"318.15 K, 101.33 kPa, x1 = 0.4996",13.77 ± 1.4 mPa·s
same,viscosity,"318.15 K, 101.33 kPa, x1 = 0.5995",24.56 ± 2.5 mPa·s
same,viscosity,"318.15 K, 101.33 kPa, x1 = 0.6994",41.13 ± 4.2 mPa·s
same,viscosity,"318.15 K, 101.33 kPa, x1 = 0.8004",68.13 ± 7 mPa·s
same,viscosity,"318.15 K, 101.33 kPa, x1 = 0.8999",105.3 ± 11 mPa·s
COC(=O)CC(C)=O + CCCCOC(C)=O,viscosity,"298.15 K, 101.33 kPa, x1 = 0.1019",0.719 ± 0.01 mPa·s
same,viscosity,"298.15 K, 101.33 kPa, x1 = 0.2013",0.768 ± 0.011 mPa·s
same,viscosity,"298.15 K, 101.33 kPa, x1 = 0.3015",0.826 ± 0.011 mPa·s
same,viscosity,"298.15 K, 101.33 kPa, x1 = 0.4035",0.895 ± 0.012 mPa·s
same,viscosity,"298.15 K, 101.33 kPa, x1 = 0.5006",0.969 ± 0.013 mPa·s
same,viscosity,"298.15 K, 101.33 kPa, x1 = 0.6004",1.055 ± 0.014 mPa·s
same,viscosity,"298.15 K, 101.33 kPa, x1 = 0.7005",1.163 ± 0.015 mPa·s
same,viscosity,"298.15 K, 101.33 kPa, x1 = 0.8087",1.289 ± 0.017 mPa·s
same,viscosity,"298.15 K, 101.33 kPa, x1 = 0.8989",1.407 ± 0.018 mPa·s
same,viscosity,"303.15 K, 101.33 kPa, x1 = 0.1019",0.672 ± 0.009 mPa·s
same,viscosity,"303.15 K, 101.33 kPa, x1 = 0.2013",0.716 ± 0.01 mPa·s
same,viscosity,"303.15 K, 101.33 kPa, x1 = 0.3015",0.768 ± 0.011 mPa·s
same,viscosity,"303.15 K, 101.33 kPa, x1 = 0.4035",0.83 ± 0.011 mPa·s
same,viscosity,"303.15 K, 101.33 kPa, x1 = 0.5006",0.896 ± 0.012 mPa·s
same,viscosity,"303.15 K, 101.33 kPa, x1 = 0.6004",0.973 ± 0.013 mPa·s
same,viscosity,"303.15 K, 101.33 kPa, x1 = 0.7005",1.068 ± 0.014 mPa·s
same,viscosity,"303.15 K, 101.33 kPa, x1 = 0.8087",1.181 ± 0.015 mPa·s
same,viscosity,"303.15 K, 101.33 kPa, x1 = 0.8989",1.284 ± 0.017 mPa·s
same,viscosity,"308.15 K, 101.33 kPa, x1 = 0.1019",0.629 ± 0.009 mPa·s
same,viscosity,"308.15 K, 101.33 kPa, x1 = 0.2013",0.669 ± 0.009 mPa·s
same,viscosity,"308.15 K, 101.33 kPa, x1 = 0.3015",0.717 ± 0.01 mPa·s
same,viscosity,"308.15 K, 101.33 kPa, x1 = 0.4035",0.774 ± 0.011 mPa·s
same,viscosity,"308.15 K, 101.33 kPa, x1 = 0.5006",0.832 ± 0.011 mPa·s
same,viscosity,"308.15 K, 101.33 kPa, x1 = 0.6004",0.901 ± 0.012 mPa·s
same,viscosity,"308.15 K, 101.33 kPa, x1 = 0.7005",0.987 ± 0.013 mPa·s
same,viscosity,"308.15 K, 101.33 kPa, x1 = 0.8087",1.085 ± 0.014 mPa·s
same,viscosity,"308.15 K, 101.33 kPa, x1 = 0.8989",1.179 ± 0.015 mPa·s
COc1ccc(C=O)cc1 + CCCCOCCO,viscosity,"303.15 K, 101 kPa, x1 = 0.1088",2.197 ± 0.22 mPa·s
same,viscosity,"303.15 K, 101 kPa, x1 = 0.2154",2.089 ± 0.21 mPa·s
same,viscosity,"303.15 K, 101 kPa, x1 = 0.3201",2.055 ± 0.21 mPa·s
same,viscosity,"303.15 K, 101 kPa, x1 = 0.4227",2.09 ± 0.21 mPa·s
same,viscosity,"303.15 K, 101 kPa, x1 = 0.5234",2.191 ± 0.22 mPa·s
same,viscosity,"303.15 K, 101 kPa, x1 = 0.6223",2.354 ± 0.24 mPa·s
same,viscosity,"303.15 K, 101 kPa, x1 = 0.7193",2.575 ± 0.26 mPa·s
same,viscosity,"303.15 K, 101 kPa, x1 = 0.8146",2.852 ± 0.29 mPa·s
same,viscosity,"303.15 K, 101 kPa, x1 = 0.9081",3.18 ± 0.32 mPa·s
same,viscosity,"308.15 K, 101 kPa, x1 = 0.1088",2.107 ± 0.21 mPa·s
same,viscosity,"308.15 K, 101 kPa, x1 = 0.2154",2.006 ± 0.2 mPa·s
same,viscosity,"308.15 K, 101 kPa, x1 = 0.3201",1.963 ± 0.2 mPa·s
same,viscosity,"308.15 K, 101 kPa, x1 = 0.4227",1.973 ± 0.2 mPa·s
same,viscosity,"308.15 K, 101 kPa, x1 = 0.5234",2.035 ± 0.2 mPa·s
same,viscosity,"308.15 K, 101 kPa, x1 = 0.6223",2.145 ± 0.21 mPa·s
same,viscosity,"308.15 K, 101 kPa, x1 = 0.7193",2.3 ± 0.23 mPa·s
same,viscosity,"308.15 K, 101 kPa, x1 = 0.8146",2.499 ± 0.25 mPa·s
same,viscosity,"308.15 K, 101 kPa, x1 = 0.9081",2.738 ± 0.27 mPa·s
same,viscosity,"313.15 K, 101 kPa, x1 = 0.1088",1.984 ± 0.2 mPa·s
same,viscosity,"313.15 K, 101 kPa, x1 = 0.2154",1.912 ± 0.19 mPa·s
same,viscosity,"313.15 K, 101 kPa, x1 = 0.3201",1.881 ± 0.19 mPa·s
same,viscosity,"313.15 K, 101 kPa, x1 = 0.4227",1.888 ± 0.19 mPa·s
same,viscosity,"313.15 K, 101 kPa, x1 = 0.5234",1.932 ± 0.19 mPa·s
same,viscosity,"313.15 K, 101 kPa, x1 = 0.6223",2.01 ± 0.2 mPa·s
same,viscosity,"313.15 K, 101 kPa, x1 = 0.7193",2.121 ± 0.21 mPa·s
same,viscosity,"313.15 K, 101 kPa, x1 = 0.8146",2.262 ± 0.23 mPa·s
same,viscosity,"313.15 K, 101 kPa, x1 = 0.9081",2.432 ± 0.24 mPa·s
same,viscosity,"318.15 K, 101 kPa, x1 = 0.1088",1.836 ± 0.18 mPa·s
same,viscosity,"318.15 K, 101 kPa, x1 = 0.2154",1.786 ± 0.18 mPa·s
same,viscosity,"318.15 K, 101 kPa, x1 = 0.3201",1.766 ± 0.18 mPa·s
same,viscosity,"318.15 K, 101 kPa, x1 = 0.4227",1.773 ± 0.18 mPa·s
same,viscosity,"318.15 K, 101 kPa, x1 = 0.5234",1.806 ± 0.18 mPa·s
same,viscosity,"318.15 K, 101 kPa, x1 = 0.6223",1.865 ± 0.19 mPa·s
same,viscosity,"318.15 K, 101 kPa, x1 = 0.7193",1.947 ± 0.2 mPa·s
same,viscosity,"318.15 K, 101 kPa, x1 = 0.8146",2.051 ± 0.21 mPa·s
same,viscosity,"318.15 K, 101 kPa, x1 = 0.9081",2.175 ± 0.22 mPa·s
CCCCCCCCn1cc[n+](C)c1.[Cl-] + CCCO,viscosity,"298.15 K, 101 kPa, x2 = 0.1071",7238 ± 3100 mPa·s
same,viscosity,"298.15 K, 101 kPa, x2 = 0.3036",912 ± 230 mPa·s
same,viscosity,"298.15 K, 101 kPa, x2 = 0.4887",178.5 ± 20 mPa·s
same,viscosity,"313.15 K, 101 kPa, x2 = 0.2407",649 ± 150 mPa·s
same,viscosity,"313.15 K, 101 kPa, x2 = 0.3036",334.5 ± 56 mPa·s
CCOC(C)=O + CCCO,viscosity,"298.15 K, 101 kPa, x1 = 0.046",1.597 ± 0.015 mPa·s
same,viscosity,"298.15 K, 101 kPa, x1 = 0.0998",1.337 ± 0.012 mPa·s
same,viscosity,"298.15 K, 101 kPa, x1 = 0.1992",1.007 ± 0.009 mPa·s
same,viscosity,"298.15 K, 101 kPa, x1 = 0.2966",0.802 ± 0.008 mPa·s
same,viscosity,"298.15 K, 101 kPa, x1 = 0.4052",0.694 ± 0.007 mPa·s
same,viscosity,"298.15 K, 101 kPa, x1 = 0.5009",0.601 ± 0.006 mPa·s
same,viscosity,"298.15 K, 101 kPa, x1 = 0.5421",0.576 ± 0.006 mPa·s
same,viscosity,"298.15 K, 101 kPa, x1 = 0.5948",0.558 ± 0.006 mPa·s
same,viscosity,"298.15 K, 101 kPa, x1 = 0.7034",0.509 ± 0.005 mPa·s
same,viscosity,"298.15 K, 101 kPa, x1 = 0.7964",0.475 ± 0.005 mPa·s
same,viscosity,"298.15 K, 101 kPa, x1 = 0.9033",0.448 ± 0.005 mPa·s
same,viscosity,"298.15 K, 101 kPa, x1 = 0.9542",0.45 ± 0.005 mPa·s
same,viscosity,"313.15 K, 101 kPa, x1 = 0.046",1.158 ± 0.011 mPa·s
same,viscosity,"313.15 K, 101 kPa, x1 = 0.0998",0.987 ± 0.009 mPa·s
same,viscosity,"313.15 K, 101 kPa, x1 = 0.5421",0.482 ± 0.005 mPa·s
same,viscosity,"313.15 K, 101 kPa, x1 = 0.5948",0.466 ± 0.005 mPa·s
